IC50 data for ten molecules are collected here from BindingDB's records for doi:10.1016/j.bmc.2013.02.056 (Ludwig-Maximilians-University Munich, 2013).

Experiment [1] concerns the target T1, Sodium- and chloride-dependent GABA transporter 3 (Mus musculus, UniProt P31650).
T1 sequence (P31650 whole entry): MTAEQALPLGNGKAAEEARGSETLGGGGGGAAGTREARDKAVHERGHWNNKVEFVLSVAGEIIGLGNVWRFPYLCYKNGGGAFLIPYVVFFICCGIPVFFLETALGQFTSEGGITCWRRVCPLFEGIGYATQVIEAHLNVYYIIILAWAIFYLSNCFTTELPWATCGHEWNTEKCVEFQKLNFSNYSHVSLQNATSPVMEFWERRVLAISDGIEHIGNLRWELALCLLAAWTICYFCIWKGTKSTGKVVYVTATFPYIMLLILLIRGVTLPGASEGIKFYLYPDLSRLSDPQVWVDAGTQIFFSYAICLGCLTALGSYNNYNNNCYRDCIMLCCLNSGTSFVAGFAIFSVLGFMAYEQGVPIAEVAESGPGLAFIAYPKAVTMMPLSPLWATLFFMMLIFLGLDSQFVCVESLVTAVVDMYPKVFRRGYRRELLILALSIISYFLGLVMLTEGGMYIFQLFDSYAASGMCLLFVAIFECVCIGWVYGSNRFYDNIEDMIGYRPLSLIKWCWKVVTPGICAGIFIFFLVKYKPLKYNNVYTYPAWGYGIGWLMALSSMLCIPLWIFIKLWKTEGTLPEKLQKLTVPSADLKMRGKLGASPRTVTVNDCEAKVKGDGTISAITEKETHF
The experiment in a line: Inhibition of mouse GAT3 expressed in HEK cells assessed as inhibition of [3H]-GABA uptake after 25 mins by liquid scintillation counting analysis.

In experiment [2] the target is T2, Sodium- and chloride-dependent GABA transporter 2 (Mus musculus, UniProt P31649).
T2 sequence (P31649 whole entry): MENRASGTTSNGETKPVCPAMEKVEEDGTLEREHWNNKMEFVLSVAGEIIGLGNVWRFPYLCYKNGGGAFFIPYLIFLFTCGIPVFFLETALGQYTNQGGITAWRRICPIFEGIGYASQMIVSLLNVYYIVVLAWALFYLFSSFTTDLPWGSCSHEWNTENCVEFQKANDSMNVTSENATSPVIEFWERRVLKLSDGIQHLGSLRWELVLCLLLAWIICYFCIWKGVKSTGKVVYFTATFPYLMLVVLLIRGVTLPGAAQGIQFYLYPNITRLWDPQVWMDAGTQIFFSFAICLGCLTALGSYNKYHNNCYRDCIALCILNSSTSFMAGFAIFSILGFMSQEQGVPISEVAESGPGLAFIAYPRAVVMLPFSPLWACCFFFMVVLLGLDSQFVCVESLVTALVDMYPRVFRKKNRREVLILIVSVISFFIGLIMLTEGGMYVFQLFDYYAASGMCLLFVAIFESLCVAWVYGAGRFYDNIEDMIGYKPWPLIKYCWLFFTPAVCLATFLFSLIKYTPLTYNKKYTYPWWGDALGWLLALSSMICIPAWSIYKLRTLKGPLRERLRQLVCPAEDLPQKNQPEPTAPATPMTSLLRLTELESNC
The experiment in a line: Inhibition of mouse GAT2 expressed in HEK cells assessed as inhibition of [3H]-GABA uptake after 25 mins by liquid scintillation counting analysis.

As for `O=C(O)C1CCCN(CCO/C=C\c2cc(F)ccc2Cc2ccc(F)cc2)C1` (centres undefined), the IC50 is 50.1 µM in experiment [1] and 91.2 µM in experiment [2]. Regarding `O=C(O)C1CCCN(CCO/C=C\c2ccc(F)cc2Cc2ccccc2F)C1` (centres undefined), the IC50 in experiment [1] came to 19.5 µM. Regarding `O=C(c1ccccc1F)c1cc(F)ccc1/C=C/OCCN1CCCC(C(=O)O)C1` (centres undefined), the IC50 in experiment [1] came to 372 µM; in experiment [2], 141 µM. On the same counts, the results for `O=C(c1cccc(F)c1)c1ccc(F)cc1/C=C/OCCN1CCCC(C(=O)O)C1` (centres undefined) are 339 µM and 60.3 µM.

In the case of `O=C(O)C1CCCN(CCO/C=C\c2cc(F)ccc2Cc2ccccc2F)C1` (centres undefined), the IC50 in experiment [1] was 28.2 µM. Turning to `O=C(O)[C@@H]1CCCN(CCC=C(c2ccccc2)c2ccccc2)C1` [(R)-1-(4,4-Diphenyl-but-3-enyl)-piperidine-3-carboxylic acid], the IC50 came to 195 µM in experiment [1] and 372 µM in experiment [2]. Take `O=C(O)C1CCCN(CCO/C=C\c2cc(F)ccc2Cc2cccc(F)c2)C1` (centres undefined): the IC50 in experiment [1] came to 20 µM. In the case of `O=C(O)C1CCCN(CCO/C=C/c2ccccc2Cc2ccccc2)C1` (centres undefined), the IC50 in experiment [1] was determined as 37.2 µM. `O=C(c1ccccc1F)c1cc(F)ccc1/C=C\OCCN1CCCC(C(=O)O)C1` (centres undefined): the IC50 in experiment [2] stood at 66.1 µM. For the molecule `O=C(O)C1CCCN(CCO/C=C\c2ccc(F)cc2Cc2ccc(F)cc2)C1` (centres undefined), in experiment [1], the IC50 was found to be 34.7 µM.

One may read the IC50 as the concentration that gives 50% inhibition.
